Data on five molecules can be found in US6784178B2, “Pharmacotherapy for vascular dysfunction associated with deficient nitric oxide bioactivity” (Cornell Research Foundation, Inc., priority 2000, dated 2004).

A value given as a limit tells only on which side of the number the result lay.

Test [1] addresses T1, eNOS (Bos taurus, UniProt P29473).
T1 construct: made in house
T1 sequence (P29473 1-1205): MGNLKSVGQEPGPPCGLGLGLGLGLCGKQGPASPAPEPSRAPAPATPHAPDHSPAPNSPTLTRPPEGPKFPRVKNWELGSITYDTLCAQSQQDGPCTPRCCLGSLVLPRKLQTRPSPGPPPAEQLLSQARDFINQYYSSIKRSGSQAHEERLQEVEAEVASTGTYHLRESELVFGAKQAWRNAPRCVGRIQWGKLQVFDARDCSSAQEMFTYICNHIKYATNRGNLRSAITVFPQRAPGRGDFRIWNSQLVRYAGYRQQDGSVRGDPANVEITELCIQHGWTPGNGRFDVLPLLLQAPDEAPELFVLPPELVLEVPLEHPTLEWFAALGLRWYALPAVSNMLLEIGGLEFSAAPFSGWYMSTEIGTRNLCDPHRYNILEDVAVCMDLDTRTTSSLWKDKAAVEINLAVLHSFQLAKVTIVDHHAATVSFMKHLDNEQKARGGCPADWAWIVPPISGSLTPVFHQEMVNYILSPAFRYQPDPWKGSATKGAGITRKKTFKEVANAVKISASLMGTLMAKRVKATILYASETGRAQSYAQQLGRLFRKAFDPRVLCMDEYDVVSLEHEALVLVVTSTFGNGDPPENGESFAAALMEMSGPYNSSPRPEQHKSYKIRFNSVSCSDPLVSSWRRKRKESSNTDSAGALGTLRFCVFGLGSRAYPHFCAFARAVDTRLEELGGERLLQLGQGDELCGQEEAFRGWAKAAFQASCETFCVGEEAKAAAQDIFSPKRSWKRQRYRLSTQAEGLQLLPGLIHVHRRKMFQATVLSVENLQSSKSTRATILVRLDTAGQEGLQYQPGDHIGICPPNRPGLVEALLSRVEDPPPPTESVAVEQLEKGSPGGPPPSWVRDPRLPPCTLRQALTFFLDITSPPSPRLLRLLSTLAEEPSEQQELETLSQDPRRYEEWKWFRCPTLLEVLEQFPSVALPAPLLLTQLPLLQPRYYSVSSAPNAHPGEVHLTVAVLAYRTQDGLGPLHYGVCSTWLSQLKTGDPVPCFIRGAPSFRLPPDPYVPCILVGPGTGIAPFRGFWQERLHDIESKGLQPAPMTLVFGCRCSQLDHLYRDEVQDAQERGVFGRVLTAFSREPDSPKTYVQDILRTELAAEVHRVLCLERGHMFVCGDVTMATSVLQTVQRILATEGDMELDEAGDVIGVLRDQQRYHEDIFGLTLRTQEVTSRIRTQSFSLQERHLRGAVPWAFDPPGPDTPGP
Briefly: [3H]tetrahydrobiopterin competition binding to eNOS (96-well filtration plate assay). Conditions: [3H]BH4 10 pmoles, eNOS 3 pmoles, 15 minutes at 22° C., FIG. 1. Here is the method:
(§1) The eNOS used in Reference Examples 1, 2, 3 and 4 was made as described in Martasek, P., et al., Biochem. Biophys. Res. Commn 219, 359-365 (1996).
Increasing concentrations of unlabeled pterins were incubated for 15 minutes at 22° C. with [^3]tetrahydrobiopterin ([^3H]BH4), 10 pmoles, and eNOS, 3 pmoles, in binding buffer which is Tris.HCl, pH 7.5, (50 mM), and dithiothreitol (DTT) (1 mM), in a 100 microliter volume in each well in a 96-well filtration plate assay. The pterins used include 5,6,7,8-tetrahydrobiopterin (BH4), 7,8-dihydrobiopterin (BH2), 6-methyltetrahydrobiopterin (6 MePH4) and sepiapterin. Data which are shown in FIG. 1 are mean±SEM values of triplicate determinations. Similar results were obtained in four separate experiments. In FIG. 1, the squares denote BH4 for the naturally occurring (R)-stereoisomer of BH4 and represent BH4, the triangles represent BH2, the diamonds represent 6 MePH4, and the circles represent sepiapterin. In FIG. 1, the term “Inhibitor” in the horizontal legend means pterin analog and is generic for BH4, BH2, 6MePH4 and sepiapterin. Incubations were carried out at the concentrations indicated by the data points in FIG. 1. This experiment is to compare the ability of the named pterins to compete for [^3H]BH4 binding to eNOS.

The target in test [2] is T2, eNOS (Bos taurus, UniProt P29473).
T2 construct: made in house
The test is described as follows: EPR (DEPMPO spin-trap) assessment of superoxide production by pterin-bound eNOS. It is filed as biochemical. The conditions noted are these: 7 pmol eNOS; BH4 10 μM in buffer; subsequent addition of sepiapterin 50 μM or BH2 1 mM; FIGS. 2(a)-(c). As to the method:
as §1
Assay buffer utilized contained HEPES (50 mM, pH 7.4), calcium (0.2 mM), calmodulin (10 μg/ml), NADPH (0.1 mM), L-arginine (0.1 mM), tetrahydrobiopterin (10 μM), DEPMPO (structure shown in upper right of FIG. 2(a)) (50 mM), and diethylenetriamine pentaacetic acid (DTPA) (0.1 mM). Included was 7 pmol eNOS. Incubation was for 15 min at 22° C. Subsequent addition was either of sepiapterin (50 μM) or BH2 (1 mM). The DEPMPO functions as a probe (spin-trap) that selectively captures superoxide anion. Electron paramagnetic resonance (EPR) was carried out to determine superoxide production. EPR was carried out at microwave power of 2 mW, modulation amplitude 1G, time constant 0.128 seconds, scan rate 1.6 G/s, gain 1.25×10E5, number of scans 10.

Test [3] has as its target T2, eNOS. The test is described as follows: Total nitrate/nitrite (Greiss assay) production by BH4- or BH2-bound eNOS from arginine or N-hydroxyarginine. The conditions noted are these: for production of nitric oxide (total nitrate/nitrite) from substrate by BH2-bound eNOS / production of nitric oxide (total nitrate/nitrite) from substrate by BH4-bound eNOS: substrate 100 μM, eNOS 10 pmol, 1 hour at 37° C.; for production of nitric oxide (total nitrate/nitrite) from substrate by BH2-bound eNOS: BH2 10 μM; for production of nitric oxide (total nitrate/nitrite) from substrate by BH4-bound eNOS: BH4 10 μM. In kind it is biochemical. Here is the method: as §1
All samples were 100 microliter total volume and contained assay buffer (Tris.HCl pH 7.6 (50 mM), DTT (1 mM), calcium (100 μM), and calmodulin (100 nM)). In the assay buffer, eNOS (10 pmol), either BH4 (10 μM) or BH2 (10 μM), and either L-arginine (100 μM) or N^ω-hydroxy-L-arginine (100 μM) were introduced. In some experiments, the nitric oxide synthase inhibitor N^ω-methyl-L-arginine (NMA, 1 mM) was additionally added or the required NO synthase cofactor calmodulin was omitted (No CaM). Incubations were for 1 hour at 37° C. Total nitrate/nitrite (as a measure of nitric oxide) was measured by the Greiss assay as described in “Methods of Nitric Oxide Research,” edited by Feelisch, M. and Stamler, J. S., John Wiley & Sons Ltd. (1996) at pages 491-497. Results are shown in FIGS. 3(a), 3(b), 3(c) and 3(d). […] Data represent means±SEM values of quadruplicate determinations.

Test [4] concerns the target T2, eNOS. Briefly: Concentration dependence of nitric oxide synthesis from N-hydroxyarginine by BH2- or BH4-bound eNOS. It is filed as biochemical. The conditions noted are these: eNOS 10 pmol preincubated with BH2 10 μM or BH4 10 μM; 1 hour at 37° C.; FIG. 4. Here is the method: as §1
eNOS (10 pmol) was preincubated for 30 minutes at 37° C. in the presence of either BH2 (10 μM) or BH4 (10 μM) in assay buffer (Tris.HCl pH 7.6 (50 mM), DTT (1 mM), calcium (100 μM) and calmodulin (100 nM)). Then N^ω-hydroxy-L-arginine (denoted “Hydroxyarginine” in FIG. 4) was added (concentrations as disclosed in FIG. 4) and incubations were 100 microliter total volume and were allowed to proceed for 1 hour at 37° C. Nitric oxide production was assessed from accumulation of its stable oxidation products (nitrite and nitrate), quantified by a modified Greiss assay (reference recited in Reference Example 3). Data are mean±SEM values of quadruplicate determinations.

A short description of test [5]: Example I: ointment applied to toes of male with Type I diabetes. It is filed as in vivo, human. Conditions: 1% by weight ointment four times a day. From the text:
A person with Type I diabetes presents with symptoms of pain in toes and loss of pink color (gray tissue tone) in toes. An ointment containing 1% by weight N^ω-hydroxy-L-arginine is applied to the toes four times a day.

A short description of test [6]: Example II: treadmill test in male with coronary artery disease. It is filed as in vivo, human. Conditions: oral 10 mg/kg, within 90 minutes after dose; 3 mph, 5% incline; before treatment pain after 10 minutes. As to the method:
A person with coronary artery disease develops chest pain and electrocardiographic evidence of angina after 10 minutes on a treadmill at 3 mph and 5% incline. Within 90 minutes after an oral dose of 10 mg/kg of N^ω-hydroxy-L-arginine, the subject is able to walk on the treadmill at 3 mph and 5% incline for 25 minutes without pain or evidence of […].

Test [7] can be described thus: Example III: blood pressure and vascular resistance in hypertensive female. The conditions noted are these: single 10 mg/kg intravenous dose, one hour after. In kind it is in vivo, human. As to the method: A person has moderate hypertension (150/100 mm Hg) and elevated vascular resistance. One hour after receiving a single 10 mg/kg intravenous dose of N^ω-hydroxy-L-arginine, mean arterial blood pressure is diminished by 14 mm Hg and systemic vascular resistance is reduced by 10%.

Test [8] is described as follows: Example IV: chronic oral therapy after stroke. In kind it is in vivo, human. The conditions noted are these: oral 5 mg/kg every 4 hours, alone or combined with L-arginine 20 mg/kg every 4 hours. Here is the method: A person suffers from type 2 diabetes (adult onset diabetes or insulin resistant diabetes), coronary artery disease and hypertension (a not uncommon composite of conditions), experiences a stroke resulting in acute left-sided paralysis owing to right middle cerebral artery occlusion. Surviving the stroke, the patient is placed on chronic oral therapy with N^ω-hydroxy-L-arginine, 5 mg/kg every 4 hours, or a combination of this with L-arginine, 20 mg/kg every 4 hours.

Test [9] is described as follows: Example V: chronic oral treatment of man with mild hypertension and coronary artery atherosclerosis. It is filed as in vivo, human. Conditions: oral 5 mg/kg every 4 hours, free drug or with antioxidants/vitamins, with or without L-arginine. As to the method:
He is treated with 5 mg/kg N^ω-hydroxy-L-arginine every 4 hours orally as either free drug or in admixture with antioxidant agents and vitamins (e.g., ascorbate, alpha-tocopherol, vitamin B6, vitamin B12, folate (folic acid), carotenoids, coenzyme Q10, phytoestrogens (including isoflavonoids), selenium, butylated hydroxytoluene (BHT), butylated hydroxyanisole (BHA) and n-3 polyunsaturated fatty acids (PUFA)) with or without L-arginine supplementation (20 mg/kg every 4 hours). The mixture is delivered as a nutriceutical. Blood pressure normalizes to less than 130/80 mm Hg and angiographic evidence indicates atherosclerosis progression is less than 10% additional over the next five years.

As to `C[C@H](O)[C@H](O)C1=Nc2c(nc(N)[nH]c2=O)NC1` [BH2, 7,8-dihydrobiopterin], the “affinity of binding to eNOS (competition for [3H]BH4 binding)” value on eNOS [1] is listed as “bind with equal affinity to eNOS”. At eNOS [2], the “superoxide production by eNOS bound to the pterin (EPR)” value is “activate superoxide production”.
For the molecule `CNC(=N)NCCC[C@H](N)C(=O)O` [NMA, N^ω-methyl-L-arginine], on eNOS [3] (NMA 1 mM added, L-arginine 100 μM), the “block of arginine conversion to nitric oxide by BH4-bound eNOS” value is recorded as more than 90%. Moreover, at eNOS [3] (NMA 1 mM added, N-hydroxy-L-arginine 100 μM), the “effect on N-hydroxyarginine conversion to nitric oxide by BH2-bound eNOS” value is listed as less than 30%.
For `N=C(NO)NCCC[C@H](N)C(=O)O` [N^ω-hydroxy-L-arginine], on eNOS [3], the “production of nitric oxide (total nitrate/nitrite) from substrate by BH2-bound eNOS” value is given as “does cause production of nitric oxide” and the “production of nitric oxide (total nitrate/nitrite) from substrate by BH4-bound eNOS” value was “causes production of nitric oxide”. Also, the “production of nitrogen oxides (nitrite and nitrate) by eNOS from the substrate” value on eNOS [4] is reported as “supports the production of nitrogen oxides by eNOS in the presence of either BH2 or BH4”. The blood perfusion entry in test [5] is given as “Blood perfusion is increased”. Besides, in test [5] (within 48 hours), the pain in toes entry is “pain diminishes” and the “tissue colour of toes” value is reported as “tissue becomes pinker”. Also, the “time able to walk on treadmill without pain or evidence of angina” value in test [6] amounted to 25 min. In addition, in [7], the “decrease of mean arterial blood pressure” value was determined as 14 mm Hg and the “reduction of systemic vascular resistance” value amounted to 10%. Moreover, the “recurrence of stroke within the next two years” value in test [8] was “no recurrence of stroke”. Besides, the “atherosclerosis progression (angiographic) over the next five years” value in test [9] is “less than 10%”. The “blood pressure after treatment” value in [9] (baseline 140/90 mm Hg) was “less than 130/80”.
On to `N=C(N)NCCC[C@H](N)C(=O)O` [arginine, L-arginine], for which, on eNOS [3], the “production of nitric oxide (total nitrate/nitrite) from substrate by BH2-bound eNOS” value was “does not cause production of nitric oxide” and the “production of nitric oxide (total nitrate/nitrite) from substrate by BH4-bound eNOS” value is listed as “causes production of nitric oxide”.
For the molecule `C[C@H](O)C(=O)C1=Nc2c(nc(N)[nH]c2=O)NC1` [sepiapterin], the “superoxide production by eNOS bound to the pterin (EPR)” value on eNOS [2] is on record as “will activate superoxide production”.
